Laboratory results reported in patent publication US12036230B2, “PTEN inhibitors for treatment and prevention of bone marrow loss” (NISIBIS, LLC-S, priority 2020, dated 2024).
Like-named read-outs stand apart in the source and are kept apart here. Numbered stars: 1 amine (or outer) side, 2 acyl side, 3 side chain; on linkers, the order of the positions; unused ones are H or OH. Bridge positions count the residues as written; N and C are the ends. Square brackets hold non-standard residues; d marks the D form. Peptide text beside a SMILES is read from it. Orn = NCCC[C@H](N)C(=O)O; X1 = O=C(CCC[*:2])[*:1]; Mpa = O=C(O)CCS

Molecular target: T1, Human recombinant PTEN (Homo sapiens, UniProt P60484)
T1 construct: host or cells: Escherichia coli
T1 sequence (P60484 whole entry): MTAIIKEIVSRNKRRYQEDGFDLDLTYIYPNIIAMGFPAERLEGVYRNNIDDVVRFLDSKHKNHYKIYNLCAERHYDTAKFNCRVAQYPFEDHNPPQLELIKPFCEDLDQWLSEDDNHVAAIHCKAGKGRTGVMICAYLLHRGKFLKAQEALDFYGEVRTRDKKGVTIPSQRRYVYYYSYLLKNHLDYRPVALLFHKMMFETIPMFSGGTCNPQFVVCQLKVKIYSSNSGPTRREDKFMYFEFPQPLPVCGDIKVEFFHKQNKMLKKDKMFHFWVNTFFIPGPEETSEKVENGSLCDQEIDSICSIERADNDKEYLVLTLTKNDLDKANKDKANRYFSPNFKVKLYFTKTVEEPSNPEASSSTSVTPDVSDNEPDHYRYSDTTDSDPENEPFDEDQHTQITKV
Experiment: PTEN inhibitor screen: conversion of DiFMUP to DiFMU by recombinant PTEN, spectrofluorometric
Type: biochemical
Experimental: Candidate PTEN inhibitor compounds were identified and screened for PTEN inhibition in vitro. Human recombinant PTEN purified from Escherichia coli was assayed for conversion of synthetic phosphotyrosine analog 6,8-difluoro-4-methylumbelliferyl phosphate (DiFMUP) to 6,8-difluoro-7-hydroxy-4-methylcoumarin (DiFMU) in the presence of the various candidate PTEN inhibitors. The reaction was carried out at 37° C. for 1 hour in a reaction mixture containing 100 μM of DiFMUP, 50 mM Tris-HCl (pH 8.5), 0.01% bovine serum albumin, 1 mM dithiothreitol, and 2 mM ethylenediaminetetraacetic acid. PTEN activity was measured by spectrofluorometric quantitation of increasing DiFMU over time.

[1] = 100 μM DiFMUP, 37° C., 1 hour, pH 8.5, read-out: IC50
[2] = candidate PTEN inhibitor at 10 μM, 100 μM DiFMUP, 37° C., 1 hour, pH 8.5, read-out: % Inhibition
[3] = candidate PTEN inhibitor at 10 μM, 100 μM DiFMUP, 37° C., 1 hour, pH 8.5

| Molecule | IC50 [1] | inhibition at 10 µM [2] | % Inhibition [3] | IC50 | inhibition at 10 µM (pH 8.5) |
| --- | --- | --- | --- | --- | --- |
| CC[C@H](C)[C@@H]1NC(=O)[C@H](Cc2ccc(OC)cc2)NC(=O)CCCSC[C@@H](C(=O)N2CCC[C@H]2C(=O)N[C@@H](CC(C)C)C(=O)NCC(N)=O)NC(=O)[C@H](CC(N)=O)NC(=O)[C@H](CCC(N)=O)NC1=O [carbetocin] (Y(Me)IQNCPLG-NH2; linker N-5 via X1) | > 10 µM | 1% |  |  |  |
| CCCCCCCCCCCCCC(=O)OCC(COP(=O)(O)OCC(O)CO)OC(=O)CCCCCCCCCCCCC (racemic) [DL-dimyristoylphosphatidylglycerol] | 3.99 µM |  | 71% |  |  |
| O=C(OC[C@H]1O[C@@H](OC(=O)c2cc(O)c(O)c(OC(=O)c3cc(O)c(O)c(O)c3)c2)[C@H](OC(=O)c2cc(O)c(O)c(OC(=O)c3cc(O)c(O)c(O)c3)c2)[C@@H](OC(=O)c2cc(O)c(O)c(OC(=O)c3cc(O)c(O)c(O)c3)c2)[C@@H]1OC(=O)c1cc(O)c(O)c(OC(=O)c2cc(O)c(O)c(O)c2)c1)c1cc(O)c(O)c(OC(=O)c2cc(O)c(O)c(O)c2)c1 [tannic acid] | 0.34 µM | 92% |  |  |  |
| CC1(C)C(/C=C/C=C/C=C/C=C2\N(CCCCS(=O)(=O)O)c3ccc4ccccc4c3C2(C)C)=[N+](CCCCS(=O)(=O)[O-])c2ccc3ccccc3c21 [indocyanine green acid form] | 2.96 µM | 74% |  |  |  |
| CCC1=C[C@@H]2CN(C1)Cc1c([nH]c3ccccc13)[C@@](C(=O)OC)(c1cc3c(cc1OC)N(C)[C@H]1[C@@](O)(C(=O)OC)[C@H](OC(C)=O)[C@]4(CC)C=CCN5CC[C@]31[C@@H]54)C2 [vinorelbine] | > 10 µM | 19% |  |  |  |
| CCc1c(Cl)c(O)c(Cl)c(O)c1C(=O)O[C@H]1[C@H](O)[C@H](OC)[C@H](OC/C2=C\C=C\C[C@H](O)/C(C)=C/[C@H](CC)[C@@H](O[C@@H]3OC(C)(C)[C@@H](OC(=O)C(C)C)[C@H](O)[C@@H]3O)/C(C)=C/C(C)=C/C[C@@H]([C@@H](C)O)OC2=O)O[C@@H]1C [fidaxomicin] | > 10 µM | 11% |  |  |  |
| Cc1cc2nc3c(=O)[nH]c(=O)nc-3n(C[C@H](O)[C@H](O)[C@H](O)COP(=O)(O)OP(=O)(O)OC[C@H]3O[C@@H](n4cnc5c(N)ncnc54)[C@H](O)[C@@H]3O)c2cc1C [flavin adenine dinucleotide] | > 10 µM | 13% |  |  |  |
| CO[C@H]1C[C@@H]2CC[C@@H](C)[C@@](O)(O2)C(=O)C(=O)N2CCCC[C@H]2C(=O)O[C@H]([C@H](C)C[C@@H]2CC[C@@H](OCCO)[C@H](OC)C2)CC(=O)[C@H](C)/C=C(\C)[C@@H](O)[C@@H](OC)C(=O)[C@H](C)C[C@H](C)/C=C/C=C/C=C/1C [Everolimus] | > 10 µM | 33% |  |  |  |
| CO[C@H]1O[C@H](COS(=O)(=O)O)[C@@H](O[C@@H]2O[C@@H](C(=O)O)[C@@H](O[C@H]3O[C@H](COS(=O)(=O)O)[C@@H](O[C@@H]4O[C@H](C(=O)O)[C@@H](O[C@H]5O[C@H](COS(=O)(=O)O)[C@@H](O)[C@H](O)[C@H]5NS(=O)(=O)O)[C@H](O)[C@H]4O)[C@H](OS(=O)(=O)O)[C@H]3NS(=O)(=O)O)[C@H](O)[C@H]2OS(=O)(=O)O)[C@H](O)[C@H]1NS(=O)(=O)O [Fondaparinux] | 2.77 µM | 80% |  |  |  |
| CC(C)c1nc(CN(C)C(=O)N[C@@H](CCN2CCOCC2)C(=O)N[C@H](CC[C@H](Cc2ccccc2)NC(=O)OCc2cncs2)Cc2ccccc2)cs1 [Cobicistat] | > 10 µM | 24% |  |  |  |
| Verteporfin | 5.71 µM |  | 98% |  |  |
| C[C@@H]1C/C=C/C=C/C=C/C=C/[C@H](O[C@@H]2O[C@H](C)[C@@H](O)[C@H](N)[C@@H]2O)C[C@@H]2O[C@](O)(C[C@@H](O)C[C@H]3O[C@@H]3/C=C/C(=O)O1)C[C@H](O)[C@H]2C(=O)O [natamycin] | > 10 µM | 3% |  |  |  |
| C[C@@H]1CC(=O)NN=C1c1ccc(NN=C(C#N)C#N)cc1 [Levosimendan] | > 10 µM | 24% |  |  |  |
| COc1ccc(CC2c3cc(OC)c(OC)cc3CC[N+]2(C)CCC(=O)OCCCCCOC(=O)CC[N+]2(C)CCc3cc(OC)c(OC)cc3C2Cc2ccc(OC)c(OC)c2)cc1OC (stereo not shown) [atracurium besylate] | > 10 µM | 16% |  |  |  |
| C#C[C@]1(O)CC[C@H]2[C@@H]3CCC4=CC(=O)CC[C@@H]4[C@H]3C(=C)C[C@@]21CC [etonogestrel] | > 10 µM | 2% |  |  |  |
| Clc1ccc(C(c2ccccc2Cl)C(Cl)Cl)cc1 (stereo not shown) [mitotane] | > 10 µM | 13% |  |  |  |

| Molecule | IC50 [1] | inhibition at 10 µM [2] | % Inhibition [3] | IC50 | inhibition at 10 µM (pH 8.5) |
| --- | --- | --- | --- | --- | --- |
| O=C1CCCC(=O)C1C(=O)c1ccc(C(F)(F)F)cc1[N+](=O)[O-] [nitisinone] | > 10 µM | 1% |  |  |  |
| CC(=O)O[C@H]1C[C@@H]2CC[C@@H]3[C@H](CC[C@@]4(C)[C@H]3C[C@H]([N+]3(C)CCCCC3)[C@@H]4OC(C)=O)[C@@]2(C)C[C@@H]1[N+]1(C)CCCCC1 [pancuronium] | > 10 µM | 11% |  |  |  |
| CCCCCCCC/C=C\CCCCCCCC(=O)O[C@H](COC(=O)CCCCCCCCCCCCCCC)COP(=O)(O)OCC(O)CO (mixture of isomers) [1-palmitoyl-2-oleoyl-sn-glycero-3-(phospho-rac-(1-glycerol))] | 1.79 µM | 85% |  |  |  |
| Cc1cc(-c2ccc(/N=N/c3c(S(=O)(=O)O)cc4cc(S(=O)(=O)O)cc(N)c4c3O)c(C)c2)ccc1/N=N/c1c(S(=O)(=O)O)cc2cc(S(=O)(=O)O)cc(N)c2c1O [trypan blue free acid] | 4.41 µM | 79% |  |  |  |
| CC(C)c1c(C(=O)Nc2ccccc2)c(-c2ccccc2)c(-c2ccc(F)cc2)n1CC[C@@H](O)C[C@@H](O)CC(=O)O [atorvastatin] | > 10 µM | 4% |  |  |  |
| CCOc1ccc(C[C@H]2NC(=O)CCSSC[C@@H](C(=O)N3CCC[C@H]3C(=O)N[C@@H](CCCN)C(=O)NCC(N)=O)NC(=O)[C@H](CC(N)=O)NC(=O)[C@H]([C@@H](C)O)NC(=O)[C@H]([C@@H](C)CC)NC2=O)cc1 [atosiban] ([Mpa][dY](Et)ITNCP[Orn]G-NH2; disulfide 1-6) |  | 12% |  | > 10 µM |  |
| C[C@H](N)C(=O)NCC(=O)N[C@H]1CSSC[C@@H](C(=O)O)NC(=O)[C@H](CO)NC(=O)[C@H]([C@@H](C)O)NC(=O)[C@H](Cc2ccccc2)NC(=O)[C@H]([C@@H](C)O)NC(=O)[C@H](CCCCN)NC(=O)[C@H](Cc2c[nH]c3ccccc23)NC(=O)[C@H](Cc2ccccc2)NC(=O)[C@H](Cc2ccccc2)NC(=O)[C@H](CC(N)=O)NC(=O)[C@H](CCCCN)NC1=O [somatostatin] |  |  |  | > 10 µM | 5% |
| C=C1CC[C@H]2[C@@H](/C=C(\C)C(=O)[C@@]3(OC(C)=O)C[C@H](C)[C@H](OC(=O)c4ccccc4)[C@@H]3[C@H]1OC(C)=O)C2(C)C [diacetyl benzoyl lathyrol] | > 10 µM |  | 25% |  |  |
| Candicidin | 1.63 µM |  | 91% |  |  |
| CC(C)(C)CC(C)(C)c1cc(Cc2cc(C(C)(C)CC(C)(C)C)cc(-n3nc4ccccc4n3)c2O)c(O)c(-n2nc3ccccc3n2)c1 [bisoctrizole] | > 10 µM | 5% |  |  |  |
| O=C(O)CN(CC(=O)O)Cc1cc2c(cc1O)Oc1cc(O)c(CN(CC(=O)O)CC(=O)O)cc1C21OC(=O)c2ccccc21 [Oftasceine] | > 10 µM | 37% |  |  |  |
| Cc1ccccc1-c1cc(N2CCN(C)CC2)ncc1N(C)C(=O)C(C)(C)c1cc(C(F)(F)F)cc(C(F)(F)F)c1 [netupitant] | > 10 µM | 12% |  |  |  |
| Cyanocobalamin | 3.08 µM |  | 85% |  |  |
| CCC[C@H](NC(=O)[C@@H]1[C@H]2CCC[C@H]2CN1C(=O)[C@@H](NC(=O)[C@@H](NC(=O)c1cnccn1)C1CCCCC1)C(C)(C)C)C(=O)C(=O)NC1CC1 [telaprevir] |  |  |  | > 10 µM | 3% |
| hyaluronic acid | > 10 µM |  | 2% |  |  |
| CO[C@H]1C[C@@H]2CC[C@@H](C)[C@@](O)(O2)C(=O)C(=O)N2CCCC[C@H]2C(=O)O[C@H]([C@H](C)C[C@@H]2CC[C@@H](O)[C@H](OC)C2)CC(=O)[C@H](C)/C=C(\C)[C@@H](O)[C@@H](OC)C(=O)[C@H](C)C[C@H](C)/C=C/C=C/C=C/1C [sirolimus] | > 10 µM | 3% |  |  |  |
